This experiment has as its target T1, BRM (Homo sapiens, UniProt P51531).
T1 construct: In-Cell Western Screen of BRM Degradation in SW1573 Cells; endogenous in cells; host or cells: SW1573
Description: In-cell Western screen of BRM degradation in SW1573 cells (Dmax and DC50). The format is cell-based. As to the method: In-Cell Western Screen of BRM Degradation in SW1573 Cells
To assess BRM degradation (Dmax and DC50), cells were seeded at 8000/well in 96-well black/clear-bottom plates in 180 μL DMEM growth media (containing 1% pen-strep, 1% HEPES and 10% FBS) per well. Plates were incubated overnight to allow adhesion. The next morning cells were treated by adding 20 μL of 10× compound (1% DMSO) to appropriate wells and returned to incubator for overnight (18-20 hours). The final DMSO concentration was 0.1%.
For processing, the plates were removed from incubator, the media was removed, and immediately 200 μL of cold (4° C.) DPBS was added to all wells. DPBS was then removed, and 50 μL of 4% paraformaldehyde (PFA) in DPBS (4° C.) was added to all wells, and the plates were incubated at room temperature for 20 minutes. PFA was then removed, and 200 μL of TBS-T containing 0.5% Triton X-100 was added to all wells, and the plates were incubated at room temperature for 30 minutes. TBS-T containing 0.5% Triton X-100 was then removed, and 50 μL of Li-Cor blocking solution was added, and the plates were incubated at room temperature for a minimum of one hour.
The next day plates were washed three times with TBS-T, 200 μL per well. Fifty (50) μL of secondary antibody cocktail in LI-COR blocking solution (anti-rabbit_800 nm and anti-mouse_680 nm) was added to all wells (diluted 1:5000). The plates were incubated at room temperature for at least one hour while protected from light. The plates were washed twice with TBS-T, 200 μL per well.
To read each plate TBS-T was removed, and each plate was inverted tapped on a paper towel. The plates were read on the LI-COR Odyssey with default intensity settings of 5.0 for both channels. LI-COR images were analyzed with the in-cell Western feature of Image Studio Lite.

Where [1] appears, read: BRM degradation, read-out: BRM DC50.
Where [2] appears, read: SW1573, % degraded, when tested at the top concentration of between 0.3 and 10 μM, read-out: BRM Dmax (%).
Setting [3] is: target protein degradation, read-out: BRM DC50.
The mark [4] stands for this setting: BRM degradation, SW1573 cells, read-out: DC50.
The mark [5] stands for this setting: BRM degradation, SW1573 cells, read-out: Dmax (% degraded).

The term DC50 denotes the concentration at which degradation of the target reaches its halfway point. What is called Dmax is the greatest extent of degradation seen.

Where two headings read alike, the source gives them in different places.

T1 sequence (P51531 whole entry): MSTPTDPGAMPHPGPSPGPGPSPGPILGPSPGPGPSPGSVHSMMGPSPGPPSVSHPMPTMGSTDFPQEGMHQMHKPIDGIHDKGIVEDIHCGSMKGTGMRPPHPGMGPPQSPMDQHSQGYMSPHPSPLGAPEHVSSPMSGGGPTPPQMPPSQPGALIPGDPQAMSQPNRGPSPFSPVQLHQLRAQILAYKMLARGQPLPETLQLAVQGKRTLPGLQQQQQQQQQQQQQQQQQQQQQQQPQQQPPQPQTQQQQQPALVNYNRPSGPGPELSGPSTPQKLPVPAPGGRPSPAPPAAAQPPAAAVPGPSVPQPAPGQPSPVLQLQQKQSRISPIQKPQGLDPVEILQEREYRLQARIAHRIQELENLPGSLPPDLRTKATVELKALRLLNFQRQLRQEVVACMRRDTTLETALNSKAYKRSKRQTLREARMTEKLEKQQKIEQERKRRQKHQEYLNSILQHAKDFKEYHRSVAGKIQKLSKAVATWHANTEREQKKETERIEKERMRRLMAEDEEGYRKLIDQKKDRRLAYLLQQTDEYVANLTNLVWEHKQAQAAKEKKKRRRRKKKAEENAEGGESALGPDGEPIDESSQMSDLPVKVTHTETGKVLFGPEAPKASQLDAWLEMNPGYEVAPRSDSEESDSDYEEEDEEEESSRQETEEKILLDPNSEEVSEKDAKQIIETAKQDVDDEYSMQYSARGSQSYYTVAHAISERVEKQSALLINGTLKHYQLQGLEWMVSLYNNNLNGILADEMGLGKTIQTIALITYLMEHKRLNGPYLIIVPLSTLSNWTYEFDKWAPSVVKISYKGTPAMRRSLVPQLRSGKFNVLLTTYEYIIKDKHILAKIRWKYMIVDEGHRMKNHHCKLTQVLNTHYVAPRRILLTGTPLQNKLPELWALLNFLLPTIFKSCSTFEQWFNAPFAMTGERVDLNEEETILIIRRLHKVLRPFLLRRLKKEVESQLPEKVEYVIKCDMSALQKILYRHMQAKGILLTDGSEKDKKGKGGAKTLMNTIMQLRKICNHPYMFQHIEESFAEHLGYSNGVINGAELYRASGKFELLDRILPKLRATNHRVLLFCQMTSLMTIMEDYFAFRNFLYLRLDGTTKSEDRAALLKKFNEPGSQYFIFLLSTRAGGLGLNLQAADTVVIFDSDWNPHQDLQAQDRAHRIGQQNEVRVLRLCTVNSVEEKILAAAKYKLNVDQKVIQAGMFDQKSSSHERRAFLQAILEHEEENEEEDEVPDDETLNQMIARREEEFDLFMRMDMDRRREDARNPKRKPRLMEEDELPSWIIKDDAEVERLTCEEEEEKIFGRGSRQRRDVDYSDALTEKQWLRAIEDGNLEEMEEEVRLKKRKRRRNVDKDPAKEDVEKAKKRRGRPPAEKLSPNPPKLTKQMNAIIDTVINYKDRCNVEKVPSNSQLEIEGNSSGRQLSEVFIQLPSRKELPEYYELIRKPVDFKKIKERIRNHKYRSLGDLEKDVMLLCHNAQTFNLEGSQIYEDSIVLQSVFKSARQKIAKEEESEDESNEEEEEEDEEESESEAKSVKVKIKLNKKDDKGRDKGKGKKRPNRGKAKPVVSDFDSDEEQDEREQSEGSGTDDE

For the compound `Cc1ncsc1-c1ccc([C@H](C)NC(=O)[C@@H]2C[C@@H](O)CN2C(=O)[C@@H](c2cc(OCCN3CCN(CCOc4cc(N5C6CCC5CN(c5cc(-c7ccccc7O)nnc5N)C6)ccn4)C[C@@H]3C)no2)C(C)C)cn1` [compound 509, (2S,4R)-1-((2R)-2-(3-(2-((2S)-4-(2-((4-(3-(3-amino-6-(2-hydroxyphenyl)pyridazin-4-yl)-3,8-diazabicyclo[3.2.1]octan-8-yl)pyridin-2-yl)oxy)ethyl)-2-methylpiperazin-1-yl)ethoxy)isoxazol-5-yl)-3-methylbutanoyl)-4-hydroxy-N-((S)-1-(6-(4-methylthiazol-5-yl)pyridin-3-yl)ethyl)pyrrolidine-2-carboxamide], the half-maximal degradation concentration (DC50) under setting [1] was less than 2.5 nM. The Dmax under setting [2] is more than 75%.

As for `Cc1ncsc1-c1ccc([C@H](C)NC(=O)[C@@H]2C[C@@H](O)CN2C(=O)[C@H](c2cc(N3CCN(CC#Cc4ncc(O[C@H]5C[C@H](Oc6cc(N7C8CCC7CN(c7cc(-c9ccccc9O)nnc7N)C8)ccn6)C5)cn4)CC3)no2)C(C)C)cc1` [compound 521, (2S,4R)-1-((2S)-2-(3-(4-(3-(5-((1r,3r)-3-((4-(3-(3-amino-6-(2-hydroxyphenyl)pyridazin-4-yl)-3,8-diazabicyclo[3.2.1]octan-8-yl)pyridin-2-yl)oxy)cyclobutoxy)pyrimidin-2-yl)prop-2-yn-1-yl)piperazin-1-yl)isoxazol-5-yl)-3-methylbutanoyl)-4-hydroxy-N-((S)-1-(4-(4-methylthiazol-5-yl)phenyl)ethyl)pyrrolidine-2-carboxamide], the DC50 under setting [1] is more than 30 nM.

With `Cc1ncsc1-c1ccc([C@H](C)NC(=O)[C@@H]2C[C@@H](O)CN2C(=O)[C@H](c2cc(OCC[C@H]3CC[C@H](O[C@H]4C[C@H](Oc5cc(N6C7CCC6CN(c6cc(-c8ccccc8O)nnc6N)C7)ccn5)C4)CC3)no2)C(C)C)cn1` [compound 485, (2S,4R)-1-((2S)-2-(3-(2-((1R,4S)-4-((1r,3S)-3-((4-(3-(3-amino-6-(2-hydroxyphenyl)pyridazin-4-yl)-3,8-diazabicyclo[3.2.1]octan-8-yl)pyridin-2-yl)oxy)cyclobutoxy)cyclohexyl)ethoxy)isoxazol-5-yl)-3-methylbutanoyl)-4-hydroxy-N-((S)-1-(6-(4-methylthiazol-5-yl)pyridin-3-yl)ethyl)pyrrolidine-2-carboxamide], the 50% degradation concentration (DC50) under setting [3] is more than 30 nM. In the case of `Cc1ncsc1-c1ccc([C@H](CN)NC(=O)[C@@H]2C[C@@H](O)CN2C(=O)[C@H](c2cc(OCCN3CCN(CCOc4cc(N5C6CCC5CN(c5cc(-c7ccccc7O)nnc5N)C6)ccn4)CC3)no2)C(C)C)cc1` [compound 290, (2S,4R)-N-((R)-2-amino-1-(4-(4-methylthiazol-5-yl)phenyl)ethyl)-1-((2S)-2-(3-(2-(4-(2-((4-(3-(3-amino-6-(2-hydroxyphenyl)pyridazin-4-yl)-3,8-diazabicyclo[3.2.1]octan-8-yl)pyridin-2-yl)oxy)ethyl)piperazin-1-yl)ethoxy)isoxazol-5-yl)-3-methylbutanoyl)-4-hydroxypyrrolidine-2-carboxamide], the DC50 under setting [4] was more than 30 nM. Turning to `Cc1ncsc1-c1ccc([C@H](CC#N)NC(=O)[C@@H]2C[C@@H](O)CN2C(=O)[C@@H](c2cc(N3CCC(CN4CCC(O[C@H]5C[C@H](Oc6cc(N7C8CCC7CN(c7cc(-c9ccccc9O)nnc7N)C8)ccn6)C5)CC4)CC3)no2)C(C)C)cc1` [compound 671, (2S,4R)-1-((2R)-2-(3-(4-((4-((1r,3r)-3-((4-(3-(3-amino-6-(2-hydroxyphenyl)pyridazin-4-yl)-3,8-diazabicyclo[3.2.1]octan-8-yl)pyridin-2-yl)oxy)cyclobutoxy)piperidin-1-yl)methyl)piperidin-1-yl)isoxazol-5-yl)-3-methylbutanoyl)-N-((S)-2-cyano-1-(4-(4-methylthiazol-5-yl)phenyl)ethyl)-4-hydroxypyrrolidine-2-carboxamide], the half-maximal degradation concentration (DC50) under setting [4] is less than 2.5 nM. The Dmax under setting [5] is more than 75%. For `Cc1ncsc1-c1ccc([C@@H](COCC2CCOCC2)NC(=O)[C@@H]2C[C@@H](O)CN2C(=O)[C@@H](c2cc(OCCN3CCN(CCOc4cc(N5C6CCC5CN(c5cc(-c7ccccc7O)nnc5N)C6)ccn4)CC3)no2)C(C)C)cc1` [compound 273, (2S,4R)-1-((2R)-2-(3-(2-(4-(2-((4-(3-(3-amino-6-(2-hydroxyphenyl)pyridazin-4-yl)-3,8-diazabicyclo[3.2.1]octan-8-yl)pyridin-2-yl)oxy)ethyl)piperazin-1-yl)ethoxy)isoxazol-5-yl)-3-methylbutanoyl)-4-hydroxy-N-((S)-1-(4-(4-methylthiazol-5-yl)phenyl)-2-((tetrahydro-2H-pyran-4-yl)methoxy)ethyl)pyrrolidine-2-carboxamide], under setting [4], the 50% degradation concentration (DC50) is less than 2.5 nM. Moreover, under “BRM degradation, SW1573 cells, tested at the top concentration of between 0.3 and 10 μM, read-out: Dmax (%) (% degraded)”, the Dmax was more than 75%. Regarding `CC(C)[C@@H](C(=O)N1C[C@H](O)C[C@H]1C(=O)N[C@@H](C)c1ccc(-c2nncs2)cc1)c1cc(OCCN2CCC(O[C@H]3C[C@H](Oc4cc(N5C6CCC5CN(c5cc(-c7ccccc7O)nnc5N)C6)ccn4)C3)CC2)no1` [compound 364, (2S,4R)-N-((S)-1-(4-(1,3,4-thiadiazol-2-yl)phenyl)ethyl)-1-((2R)-2-(3-(2-(4-((1r,3R)-3-((4-(3-(3-amino-6-(2-hydroxyphenyl)pyridazin-4-yl)-3,8-diazabicyclo[3.2.1]octan-8-yl)pyridin-2-yl)oxy)cyclobutoxy)piperidin-1-yl)ethoxy)isoxazol-5-yl)-3-methylbutanoyl)-4-hydroxypyrrolidine-2-carboxamide], under setting [2], the Dmax was more than 75%. Moreover, the DC50 under setting [3] was more than 30 nM.

Regarding `Cc1ncsc1-c1ccc([C@H](C)NC(=O)[C@@H]2C[C@@H](O)CN2C(=O)[C@@H](c2cc(N3CCC(CN4CCC(O[C@H]5C[C@H](CN6CCC(C(C)n7cc(-c8cc(-c9ccccc9O)nnc8N)cn7)CC6)C5)CC4)CC3)no2)C(C)C)cc1` (stereo partly drawn) [compound 642, (2S,4R)-1-((2R)-2-(3-(4-((4-((1r,3r)-3-((4-(1-(4-(3-amino-6-(2-hydroxyphenyl)pyridazin-4-yl)-1H-pyrazol-1-yl)ethyl)piperidin-1-yl)methyl)cyclobutoxy)piperidin-1-yl)methyl)piperidin-1-yl)isoxazol-5-yl)-3-methylbutanoyl)-4-hydroxy-N-((S)-1-(4-(4-methylthiazol-5-yl)phenyl)ethyl)pyrrolidine-2-carboxamide], the DC50 under setting [4] was less than 2.5 nM. Further, the Dmax under setting [5] was more than 75%.

As for `Cc1ncsc1-c1ccc([C@H](C)NC(=O)[C@@H]2C[C@@H](O)CN2C(=O)[C@@H](c2cc(OCCC3CCN(C(=O)[C@H]4C[C@@H](CN5CCC(n6cc(-c7cc(-c8ccccc8O)nnc7N)cn6)CC5)C4)CC3)no2)C(C)C)cc1` [compound 466, (2S,4R)-1-((R)-2-(3-(2-(1-((1s,3S)-3-((4-(4-(3-amino-6-(2-hydroxyphenyl)pyridazin-4-yl)-1H-pyrazol-1-yl)piperidin-1-yl)methyl)cyclobutane-1-carbonyl)piperidin-4-yl)ethoxy)isoxazol-5-yl)-3-methylbutanoyl)-4-hydroxy-N-((S)-1-(4-(4-methylthiazol-5-yl)phenyl)ethyl)pyrrolidine-2-carboxamide], the DC50 under setting [3] is more than 30 nM. For `Cc1ncsc1-c1ccc(C(CCCP(=O)(O)O)NC(=O)[C@@H]2C[C@@H](O)CN2C(=O)[C@@H](c2cc(OCCN3CCC(O[C@H]4C[C@H](Oc5cc(N6C7CCC6CN(c6cc(-c8ccccc8O)nnc6N)C7)ccn5)C4)CC3)no2)C(C)C)cc1` (stereo partly drawn) [compound 702, (4-((2S,4R)-1-((2R)-2-(3-(2-(4-((1r,3R)-3-((4-(3-(3-amino-6-(2-hydroxyphenyl)pyridazin-4-yl)-3,8-diazabicyclo[3.2.1]octan-8-yl)pyridin-2-yl)oxy)cyclobutoxy)piperidin-1-yl)ethoxy)isoxazol-5-yl)-3-methylbutanoyl)-4-hydroxypyrrolidine-2-carboxamido)-4-(4-(4-methylthiazol-5-yl)phenyl)butyl)phosphonic acid], the DC50 (BRM degradation, SW1573 cells) is more than 30 nM. On to `Cc1ncn(C)c1-c1ccc([C@H](C)NC(=O)[C@@H]2C[C@@H](O)CN2C(=O)[C@@H](c2cc(OCCN3CCC(O[C@H]4C[C@H](Oc5cc(N6C7CCC6CN(c6cc(-c8ccccc8O)nnc6N)C7)ccn5)C4)CC3)no2)C(C)C)cc1` [compound 366, (2S,4R)-1-((2R)-2-(3-(2-(4-((1r,3R)-3-((4-(3-(3-amino-6-(2-hydroxyphenyl)pyridazin-4-yl)-3,8-diazabicyclo[3.2.1]octan-8-yl)pyridin-2-yl)oxy)cyclobutoxy)piperidin-1-yl)ethoxy)isoxazol-5-yl)-3-methylbutanoyl)-N-((S)-1-(4-(1,4-dimethyl-1H-imidazol-5-yl)phenyl)ethyl)-4-hydroxypyrrolidine-2-carboxamide], for which the Dmax under setting [2] is more than 75%. The DC50 under setting [3] lay within 2.5 to 10 nM.

The record behind these values is US12539292B2, “BRM targeting compounds and associated methods of use” (Arvinas Operations, Inc., priority 2018, dated 2026).
